Legend:
[1] = tested on: NCIH1299-inducible p53 Y220C cells; assay: Cell Proliferation Assay (CellTiter-Glo), NCIH1299-inducible p53 Y220C; format: cell-based; settings: Homo sapiens, NCI-H1299, 120 h, 5 days, read-out: CTG H1299 P53 Y220C IC50
Method: Inducible p53 Y220C and R273H constructs (Tet-One inducible expression system; Takara) were stably expressed in NCIH1299 cells by lentiviral transduction. NUGC3, A549, BxPC3, T3M4, HuH7, HCC2935, MFE296, NCIH1299, NCIH1299-inducible p53 Y220C, and NCIH1299-inducible p53 R273H cell lines were used for cell proliferation assay. 250-500 cells were seeded in each well of 384 plate and then compounds were dispensed into each well using Echo or Tecan. After 5 days of incubation, equal volume of CellTiter-Glo reagent (G7570; Promega) was added into each well and the plate was incubated at room temperature for 10 minutes with shaking. The luminescent signal was measured by PheraStar microplate reader and IC50 was calculated.

p53 Y220C = p53 Y220C (Homo sapiens, UniProt P04637, Y220C); assay: Luciferase Reporter Assay, p53 Y220C (NCIH1299 cells with inducible p53 Y220C and p53 response element-luciferase); format: cell-based; settings: 6 hour compound treatment, read-out: Luc P53 Y220C AC50
Outline: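 NCI-H1299 cells stably carrying a p53 response element-luciferase reporter and Tet-inducible p53 Y220C were induced with 0.5 ug/mL doxycycline for 24 h, then treated with compound for 6 h. Luminescence was read after One-Glo addition. AC50 was derived relative to 10 uM tool compound as positive control.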

[2] = target: T1, p53 Y220C mutant protein (amino acid residues 94-293) (Homo sapiens, UniProt P04637, Y220C); assay: Surface Plasmon Resonance (SPR) assay, p53 Y220C Kd_kinetic; settings: multi-cycle kinetics, 16 or 20 °C, pH 7.5, 1:1 binding model
T1 construct: p53 Y220C mutant protein (amino acid residues 94-293)
T1 sequence (P04637 94-293, stated change not applied): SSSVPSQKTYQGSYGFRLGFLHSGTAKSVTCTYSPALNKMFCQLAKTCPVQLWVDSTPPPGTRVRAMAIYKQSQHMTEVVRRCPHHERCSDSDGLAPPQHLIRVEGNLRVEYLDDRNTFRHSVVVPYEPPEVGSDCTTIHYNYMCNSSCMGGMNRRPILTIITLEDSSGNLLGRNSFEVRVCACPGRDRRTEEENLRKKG
Outline: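 Kd from multi-cycle SPR kinetics fitted to a 1:1 model, using 2-fold, 7-point compound series over p53 Y220C (residues 94-293). Flow 30 μL/min, 60 s association, 120 s dissociation, at 16 or 20 °C in 50 mM Tris pH 7.5, 100 mM NaCl, 1 mM DTT, 0.01% Brij35, 0.05% Tween-20, 1% DMSO.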

NUGC3 cells (p53 Y220C) = assay: Cell Proliferation Assay (CellTiter-Glo), NUGC3 p53 Y220C; format: cell-based; settings: Homo sapiens, NUGC-3, 120 h, 5 days, read-out: CTG NUGC3 P53 Y220C IC50
Outline: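 Seeded at 250–500 cells/well, then compound-treated for 5 days; the NCIH1299 lines carry Tet-One inducible p53 Y220C or R273H transduced lentivirally. Viability by CellTiter-Glo luminescence after 10 min at room temperature; IC50 calculated.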

With `CN1CC[C@@H](Nc2cccn3c(SC(F)(F)F)c(-c4noc(CNC(=O)c5sccc5N)n4)cc23)[C@@H](F)C1` [Example 33, 3-amino-N-{[3-(8-{[(3S,4R)-3-fluoro-1-methylpiperidin-4-yl]amino}-3-[(trifluoromethyl)sulfanyl]indolizin-2-yl)-1,2,4-oxadiazol-5-yl]methyl}thiophene-2-carboxamide] the IC50 [1] was under 750 nM, the AC50 (p53 Y220C) was under 750 nM and the Kd [2] was under 10 nM. For the same compound, the IC50 (NUGC3 cells (p53 Y220C)) was under 750 nM.
`COc1ccc2nc(C(=O)NCc3nc(-c4cc5c(N[C@@H]6CCN(C)C[C@@H]6F)cccn5c4SC(F)(F)F)no3)ccc2c1` [Example 34, N-{[3-(8-{[(3S,4R)-3-fluoro-1-methylpiperidin-4-yl]amino}-3-[(trifluoromethyl)sulfanyl]indolizin-2-yl)-1,2,4-oxadiazol-5-yl]methyl}-6-methoxyquinoline-2-carboxamide] gave an IC50 [1] of 1500 to 3000 nM, an AC50 (p53 Y220C) of at least 3000 nM and a Kd [2] of 10 to 100 nM. The IC50 (NUGC3 cells (p53 Y220C)) was 1500 to 3000 nM.
In the case of `COc1ccc2cc(C(=O)NCc3nc(-c4cc5c(N[C@@H]6CCN(C)C[C@@H]6F)cccn5c4SC(F)(F)F)no3)n(C)c2c1` [Example 35, N-{[3-(8-{[(3S,4R)-3-fluoro-1-methylpiperidin-4-yl]amino}-3-[(trifluoromethyl)sulfanyl]indolizin-2-yl)-1,2,4-oxadiazol-5-yl]methyl}-6-methoxy-1-methylindole-2-carboxamide], the IC50 [1] is reported as 1500 to 3000 nM, the AC50 (p53 Y220C) is reported as at least 3000 nM and the Kd [2] is reported as 10 to 100 nM. The IC50 (NUGC3 cells (p53 Y220C)) was 1500 to 3000 nM.
Work on `CN1CC[C@@H](Nc2cccn3c(SC(F)(F)F)c(-c4noc(CNC(=O)C5(F)CCOCC5)n4)cc23)[C@@H](F)C1` [Example 36, 4-fluoro-N-{[3-(8-{[(3S,4R)-3-fluoro-1-methylpiperidin-4-yl]amino}-3-[(trifluoromethyl)sulfanyl]indolizin-2-yl)-1,2,4-oxadiazol-5-yl]methyl}oxane-4-carboxamide] yielded an IC50 [1] of 1500 to 3000 nM, an AC50 (p53 Y220C) of 1500 to 3000 nM and a Kd [2] of 10 to 100 nM. The IC50 (NUGC3 cells (p53 Y220C)) was 1500 to 3000 nM.
In the case of `COc1csc(C(=O)NCc2nc(-c3cc4c(N[C@@H]5CCN(C)C[C@@H]5F)cccn4c3SC(F)(F)F)no2)c1` [Example 37, N-{[3-(8-{[(3S,4R)-3-fluoro-1-methylpiperidin-4-yl]amino}-3-[(trifluoromethyl)sulfanyl]indolizin-2-yl)-1,2,4-oxadiazol-5-yl]methyl}-4-methoxythiophene-2-carboxamide], the IC50 [1] is reported as under 750 nM, the AC50 (p53 Y220C) is reported as under 750 nM and the Kd [2] is reported as under 10 nM. For the same compound, the IC50 (NUGC3 cells (p53 Y220C)) was under 750 nM.
For `CN1CC[C@@H](Nc2cccn3c(SC(F)(F)F)c(-c4noc(CNC(=O)c5cc(C#N)cs5)n4)cc23)[C@@H](F)C1` [Example 38, 4-cyano-N-{[3-(8-{[(3S,4R)-3-fluoro-1-methylpiperidin-4-yl]amino}-3-[(trifluoromethyl)sulfanyl]indolizin-2-yl)-1,2,4-oxadiazol-5-yl]methyl}thiophene-2-carboxamide], the IC50 [1] was under 750 nM, the AC50 (p53 Y220C) was 750 to 1500 nM and the Kd [2] was 10 to 100 nM. For the same compound, the IC50 (NUGC3 cells (p53 Y220C)) was under 750 nM.
`CN1CC[C@@H](Nc2cccn3c(SC(F)(F)F)c(-c4noc(CNC(=O)c5ccc(C#N)s5)n4)cc23)[C@@H](F)C1` [Example 39, 5-cyano-N-{[3-(8-{[(3S,4R)-3-fluoro-1-methylpiperidin-4-yl]amino}-3-[(trifluoromethyl)sulfanyl]indolizin-2-yl)-1,2,4-oxadiazol-5-yl]methyl}thiophene-2-carboxamide] showed an IC50 [1] of under 750 nM, an AC50 (p53 Y220C) of 750 to 1500 nM and a Kd [2] of 10 to 100 nM. The IC50 (NUGC3 cells (p53 Y220C)) was under 750 nM.
`CN1CC[C@@H](Nc2cccn3c(SC(F)(F)F)c(-c4noc(CNC(=O)c5ccc6ncsc6c5)n4)cc23)[C@@H](F)C1` [Example 40, N-{[3-(8-{[(3S,4R)-3-fluoro-1-methylpiperidin-4-yl]amino}-3-[(trifluoromethyl)sulfanyl]indolizin-2-yl)-1,2,4-oxadiazol-5-yl]methyl}-1,3-benzothiazole-6-carboxamide] showed an IC50 [1] of under 750 nM, an AC50 (p53 Y220C) of under 750 nM and a Kd [2] of 10 to 100 nM. The IC50 (NUGC3 cells (p53 Y220C)) was under 750 nM.
For `CN1CC[C@@H](Nc2cccn3c(SC(F)(F)F)c(-c4noc(CNC(=O)c5sccc5OC(F)F)n4)cc23)[C@@H](F)C1` [Example 41, 3-(difluoromethoxy)-N-{[3-(8-{[(3S,4R)-3-fluoro-1-methylpiperidin-4-yl]amino}-3-[(trifluoromethyl)sulfanyl]indolizin-2-yl)-1,2,4-oxadiazol-5-yl]methyl}thiophene-2-carboxamide], the IC50 [1] was 750 to 1500 nM, the AC50 (p53 Y220C) was 750 to 1500 nM and the Kd [2] was 10 to 100 nM. For the same compound, the IC50 (NUGC3 cells (p53 Y220C)) was 750 to 1500 nM.
Work on `CN1CC[C@@H](Nc2cccn3c(SC(F)(F)F)c(-c4noc(CNC(=O)c5ccc(S(C)(=O)=O)cc5)n4)cc23)[C@@H](F)C1` [Example 42, N-{[3-(8-{[(3S,4R)-3-fluoro-1-methylpiperidin-4-yl]amino}-3-[(trifluoromethyl)sulfanyl]indolizin-2-yl)-1,2,4-oxadiazol-5-yl]methyl}-4-methanesulfonylbenzamide] yielded an IC50 [1] of under 750 nM, an AC50 (p53 Y220C) of under 750 nM and a Kd [2] of under 10 nM. It also gave an IC50 (NUGC3 cells (p53 Y220C)) of under 750 nM.
With `CN1CC[C@@H](Nc2cccn3c(SC(F)(F)F)c(-c4noc(CNC(=O)COc5ccc(C#N)cc5)n4)cc23)[C@@H](F)C1` [Example 43, 2-(4-cyanophenoxy)-N-{[3-(8-{[(3S,4R)-3-fluoro-1-methylpiperidin-4-yl]amino}-3-[(trifluoromethyl)sulfanyl]indolizin-2-yl)-1,2,4-oxadiazol-5-yl]methyl}acetamide] the IC50 [1] was 750 to 1500 nM, the AC50 (p53 Y220C) was 750 to 1500 nM and the Kd [2] was 10 to 100 nM. The IC50 (NUGC3 cells (p53 Y220C)) was 750 to 1500 nM.
With `CN1CC[C@@H](Nc2cccn3c(SC(F)(F)F)c(-c4noc(CNC(=O)C#CC5(NC(=O)OC(C)(C)C)CC5)n4)cc23)[C@@H](F)C1` [Example 44, tert-butyl N-{1-[2-({[3-(8-{[(3S,4R)-3-fluoro-1-methylpiperidin-4-yl]amino}-3-[(trifluoromethyl)sulfanyl]indolizin-2-yl)-1,2,4-oxadiazol-5-yl]methyl}carbamoyl)eth-1-yn-1-yl]cyclopropyl}carbamate] the IC50 [1] was under 750 nM, the AC50 (p53 Y220C) was under 750 nM and the Kd [2] was under 10 nM. It also gave an IC50 (NUGC3 cells (p53 Y220C)) of 750 to 1500 nM.
For `CN1CC[C@@H](Nc2cccn3c(SC(F)(F)F)c(-c4noc(CNC(=O)C56CC(NC(=O)OC(C)(C)C)(C5)C6)n4)cc23)[C@@H](F)C1` [Example 45, tert-butyl N-[3-({[3-(8-{[(3S,4R)-3-fluoro-1-methylpiperidin-4-yl]amino}-3-[(trifluoromethyl)sulfanyl]indolizin-2-yl)-1,2,4-oxadiazol-5-yl]methyl}carbamoyl)bicyclo[1.1.1]pentan-1-yl]carbamate], the IC50 [1] was at least 3000 nM, the AC50 (p53 Y220C) was at least 3000 nM and the Kd [2] was 10 to 100 nM. It also gave an IC50 (NUGC3 cells (p53 Y220C)) of 1500 to 3000 nM.
`CN1CC[C@@H](Nc2cccn3c(SC(F)(F)F)c(-c4noc(CNC(=O)C5(c6ccc(F)cc6)CC5)n4)cc23)[C@@H](F)C1` [Example 46, N-{[3-(8-{[(3S,4R)-3-fluoro-1-methylpiperidin-4-yl]amino}-3-[(trifluoromethyl)sulfanyl]indolizin-2-yl)-1,2,4-oxadiazol-5-yl]methyl}-1-(4-fluorophenyl)cyclopropane-1-carboxamide] was tested, and the IC50 [1] was at least 3000 nM, the AC50 (p53 Y220C) was at least 3000 nM and the Kd [2] was 100 to 1000 nM. It also gave an IC50 (NUGC3 cells (p53 Y220C)) of at least 3000 nM.
Work on `CN1CC[C@@H](Nc2cccn3c(SC(F)(F)F)c(-c4noc(CNC(=O)C5(C(F)(F)F)CC5)n4)cc23)[C@@H](F)C1` [Example 47, N-{[3-(8-{[(3S,4R)-3-fluoro-1-methylpiperidin-4-yl]amino}-3-[(trifluoromethyl)sulfanyl]indolizin-2-yl)-1,2,4-oxadiazol-5-yl]methyl}-1-(trifluoromethyl)cyclopropane-1-carboxamide] yielded an IC50 [1] of at least 3000 nM, an AC50 (p53 Y220C) of at least 3000 nM and a Kd [2] of 10 to 100 nM. For the same compound, the IC50 (NUGC3 cells (p53 Y220C)) was at least 3000 nM.
Work on `CN1CC[C@@H](Nc2cccn3c(SC(F)(F)F)c(-c4noc(CNC(=O)C(C)(C)O)n4)cc23)[C@@H](F)C1` [Example 49, N-{[3-(8-{[(3S,4R)-3-fluoro-1-methylpiperidin-4-yl]amino}-3-[(trifluoromethyl)sulfanyl]indolizin-2-yl)-1,2,4-oxadiazol-5-yl]methyl}-2-hydroxy-2-methylpropanamide] yielded an IC50 [1] of 1500 to 3000 nM, an AC50 (p53 Y220C) of 1500 to 3000 nM and a Kd [2] of 10 to 100 nM. For the same compound, the IC50 (NUGC3 cells (p53 Y220C)) was at least 3000 nM.
Compound `C[C@H](NC(=O)C1CC1)c1nc(-c2cc3c(N[C@@H]4CCN(C)C[C@@H]4F)cccn3c2SC(F)(F)F)no1` [Example 52, N-[(1S)-1-[3-(8-{[(3S,4R)-3-fluoro-1-methylpiperidin-4-yl]amino}-3-[(trifluoromethyl)sulfanyl]indolizin-2-yl)-1,2,4-oxadiazol-5-yl]ethyl]cyclopropanecarboxamide] has an IC50 [1] of at least 3000 nM, an AC50 (p53 Y220C) of at least 3000 nM and a Kd [2] of 10 to 100 nM. For the same compound, the IC50 (NUGC3 cells (p53 Y220C)) was at least 3000 nM.

— patent publication US20260347353A1, “INDOLIZINE DERIVATIVES FOR TREATING CANCER” (Antares Therapeutics, Inc., priority 2022, published 2026)
